IC50 data for 20 compounds are collected here from patent publication US20130259830A1, “CRTH2 MODULATORS” (Ironwood Pharmaceuticals, Inc., priority 2010, published 2013).

The target in assay [1] is T1, CRTH2 (Homo sapiens, UniProt Q9Y5Y4).
T1 construct: endogenous in cells; host or cells: eosinophils in human whole blood
T1 sequence (Q9Y5Y4 1-395): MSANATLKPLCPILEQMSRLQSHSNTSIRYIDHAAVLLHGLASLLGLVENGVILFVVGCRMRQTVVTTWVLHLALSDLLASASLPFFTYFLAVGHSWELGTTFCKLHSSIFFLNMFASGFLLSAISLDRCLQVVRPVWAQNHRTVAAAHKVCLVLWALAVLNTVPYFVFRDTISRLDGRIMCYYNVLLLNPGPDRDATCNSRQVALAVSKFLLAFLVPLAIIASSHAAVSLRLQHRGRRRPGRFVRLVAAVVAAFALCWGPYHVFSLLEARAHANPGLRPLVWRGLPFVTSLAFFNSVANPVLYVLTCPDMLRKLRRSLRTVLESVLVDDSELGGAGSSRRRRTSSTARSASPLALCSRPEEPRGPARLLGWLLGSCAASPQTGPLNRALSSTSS
Briefly: DPBS CD11b antagonist assay (CD11b expression in eosinophils challenged with 15R-Methyl-PGD2). The class given is cell-based. As to conditions: polymorphonuclear cells in PBS with CaCl2/MgCl2; agonist 15R-Methyl-PGD2 10 nM; eosinophils gated by flow cytometry. How it is done: DPBS CD111b Antagonist Assay.
The potential CRTH2 antagonist, activity of certain compounds was tested using a CD11b expression assay using essentially the method described by Monneret et al. (J Pharmacol Exp Ther 304:349-55, 2003). Briefly, polymorphonuclear cells (0.5 ml; 10^6/ml cells) in PBS containing 0.9 mM CaCl2 and 0.5 mM MgCl2) were preincubated with various concentrations of test compounds at room temperature for 10 minutes before they were challenged with the agonist 15R-Methyl-PGD2 (10 nM). The incubations were terminated by the addition of ice-cold FACSFlow (BD Biosciences; Cat#342003) and centrifugation (400 g for 5 minutes at 4° C.). The cells were then incubated for 30 minutes at 4° C. with a mixture of PE-labeled mouse anti-human VLA-4 (5 μl; BD Biosciences) and FITC-labeled mouse anti-human CD11b (10 μl; Beckman Coulter). The cells were then incubated with Optilyse C (0.25 ml; Beckman Coulter) for 15 minutes, centrifuged, and then fixed in PBS (0.4 ml; calcium and magnesium free) containing 1% formaldehyde. The distribution of fluorescence intensities among 60,000 cells was measured by flow cytometry. Eosinophils were gated out on the basis of their granularity (high side scatter) and labeling with VLA-4 (PE fluorescence). CD11b was then measured in the eosinophil region on the basis of fluorescence due to FITC. All data were corrected for the value obtained for the corresponding isotope control antibody.
(A flow cytometer gives signals particle by particle.)

For assay [2], the target named is T1, CRTH2. Description: Human whole blood CD11b antagonist assay (CD11b expression in eosinophils challenged with 15-R-methyl-PGD2). The class given is cell-based. The conditions noted are these: 37° C. 10 minutes preincubation, agonist 15R-Methyl-PGD2 10 nM, eosinophils gated by flow cytometry. As to the method:
Human Whole Blood […] Antagonist Assay (Modified from Nicholson, et al. Pulmonary Pharmacology and Therapeutics: 20 (2007); 52-59).
The potential CRTH2 antagonist activity of certain compounds was tested in human whole blood using an assay that tests the ability of the compounds to block the CD11b expression in eosinophils by 15-R-methyl-PGD2. A CRTH2 antagonist should block CD11b expression by subsequently added 15-Methyl-PGD2. Human whole blood (200 μL) was incubated at 37° C. for 10 minutes in the presence of various concentrations of test compounds before being challenged with the agonist 1-5R-Methyl-PGD2 (10 nM). Reactions were terminated by the addition of ice-cold PBS+0.5% BSA+2 mM EDTA (1 mL) and centrifugation (300×g for 5 minutes at 4° C.) Cells were then incubated at 4° C. for 10 min in the presence of human IgG. Cells were then incubated for 30-45 min with a mixture of PE-Cy5-labeled mouse anti-human CD16 (10 ul; BD Biosciences) and FITC-labeled mouse anti-human CD11b (10 μL; Beckman Coulter.) After rinsing (1 mL ice-cold PBS+0.5% BSA+2 mM EDTA), red blood cells were lysed by the addition of 1 mL ice-cold H2O to the cell pellet for 30 sec-1 min immediately followed by the addition of 3.5% NaCl (300 μL.) Cells were then rinsed (2×−1 ml ice cold PBS+0.5% BSA+2m MEDTA) and fixed in PBS containing 1% formaldehyde. The distribution of fluorescence intensities was measured by flow cytometry. Eosinophils were gated out on the basis of their granularity (high side scatter) and absence of CD-16. CD11b was then measured on this eosinophil population on the basis of fluorescence due to FITC.

Usually IC50 stands for the concentration that gives 50% inhibition. Low values mean higher potency, high ones lower potency. Regarding `Cc1c(Cc2ccccc2NS(=O)(=O)c2ccccc2)c2c(n1CC(=O)O)CC(C)(C)CC2=O` [Compound I-24, 2-(2,6,6-Trimethyl-4-oxo-3-(2-(phenylsulfonamido)benzyl)-4,5,6,7-tetrahydro-1H-indol-1-yl)acetic acid], the IC50 at CRTH2 [1] was under 1 nM; on CRTH2 [2], 5 to 20 nM. As to `Cc1c(Cc2cccc(N(C)S(=O)(=O)N3CCCC3)c2)c2c(n1CC(=O)O)CC(C)(C)CC2=O` [Compound I-51, 2-(2,6,6-Trimethyl-3-(3-(N-methylpyrrolidine-1-sulfonamido)benzyl)-4-oxo-4,5,6,7-tetrahydro-1H-indol-1-yl)acetic acid], the IC50 at CRTH2 [1] was 100 to 500 nM; on CRTH2 [2], over 3000 nM. In the same order, the values of `Cc1c(Cc2cccnc2S(=O)(=O)c2ccc(F)cc2)c2c(n1CC(=O)O)CC(C)(C)CC2=O` [Compound I-5, 2-(3-((2-(4-fluorophenylsulfonyl)pyridin-3-yl)methyl)-2,6,6-trimethyl-4-oxo-4,5,6,7-tetrahydro-1H-indol-1-yl)acetic acid] are under 1 nM and 5 to 20 nM. For `Cc1c(Cc2cc3ccccc3n2S(=O)(=O)c2ccccc2)c2c(n1CC(=O)O)CCC(C)(C)C2` [Compound I-1, 2-(2,5,5-trimethyl-3-((1-(phenylsulfonyl)-1H-indol-2-yl)methyl)-4,5,6,7-tetrahydro-1H-indol-1-yl)acetic acid], the IC50 on CRTH2 [1] is under 1 nM. Turning to `Cc1c(Cc2ccccc2NS(=O)(=O)N2CCCC2)c2c(n1CC(=O)O)CC(C)(C)CC2=O` [Compound I-47], the IC50 at CRTH2 [1] lay in the range of 5 to 20 nM; on CRTH2 [2], 20 to 100 nM.

As for `Cc1c(Cc2cccnc2S(=O)(=O)c2ccc(Cl)cc2)c2c(n1CC(=O)O)CC(C)(C)CC2=O` [Compound I-15, 2-(3-((2-(4-Chlorophenylsulfonyl)pyridin-3-yl)methyl)-2,6,6-trimethyl-4-oxo-4,5,6,7-tetrahydro-1H-indol-1-yl)acetic acid], the IC50 at CRTH2 [1] is under 1 nM; at CRTH2 [2], 5 to 20 nM. In the same order, the values of `Cc1c(Cc2ccccc2NS(=O)(=O)N2CCCC2)c2c(n1CC(=O)O)CC(C)(C)CC2=O` [Compound I-44] are 1 to 5 nM and 100 to 500 nM. `Cc1c(Cc2ccccc2NS(=O)(=O)c2ccc(OCc3ccccc3)cc2)c2c(n1CC(=O)O)CC(C)(C)CC2=O` [Compound I-46, 2-(3-(2-(4-(Benzyloxy)phenylsulfonamido)benzyl)-2,6,6-trimethyl-4-oxo-4,5,6,7-tetrahydro-1H-indol-1-yl)acetic acid]: the IC50 is under 1 nM on CRTH2 [1] and 5 to 20 nM on CRTH2 [2]. Regarding `Cc1c(Cc2cccnc2S(=O)(=O)c2ccccc2C(F)(F)F)c2c(n1CC(=O)O)CC(C)(C)CC2=O` [Compound I-17, 2-(2,6,6-Trimethyl-4-oxo-3-((2-(2-(trifluoromethyl)phenylsulfonyl)pyridin-3-yl)methyl)-4,5,6,7-tetrahydro-1H-indol-1-yl)acetic acid], the results for the IC50 on CRTH2 [1] and on CRTH2 [2] were under 1 nM and 5 to 20 nM, respectively. In the same order, the values of `CCOC(=O)Cn1c(C)c(Cc2cccnc2S(=O)(=O)c2ccc(F)cc2F)c2c1CC(C)(C)CC2=O` [Compound I-18, Ethyl 2-(3-((2-(2,4-difluorophenylsulfonyl)pyridin-3-yl)methyl)-2,6,6-trimethyl-4-oxo-4,5,6,7-tetrahydro-1H-indol-1-yl)acetate] are 100 to 500 nM and 500 to 3000 nM. As to `Cc1c(Sc2ccccc2NS(=O)(=O)c2ccccc2)c2c(n1CC(=O)O)CC(C)(C)CC2` [Compound I-52, 2-(2,6,6-trimethyl-3-(2-(phenylsulfonamido)phenylthio)-4,5,6,7-tetrahydro-1H-indol-1-yl)acetic acid], the IC50 at CRTH2 [1] is under 1 nM; at CRTH2 [2], 5 to 20 nM. As for `Cc1c(Cc2cccnc2S(=O)(=O)c2ccccc2)c2c(n1CC(=O)O)CC(C)(C)CC2=O` [Compound I-3, 2-(2,6,6-trimethyl-4-oxo-3-((2-(phenylsulfonyl)pyridin-3-yl)methyl)-4,5,6,7-tetrahydro-1H-indol-1-yl)acetic acid], the IC50 on CRTH2 [1] was under 1 nM; on CRTH2 [2] it was 5 to 20 nM. Consider `COc1ccc(S(=O)(=O)c2ncccc2Cc2c3c(n(CC(=O)O)c2C)CC(C)(C)CC3=O)cc1` [Compound I-7, 2-(3-((2-(4-methoxyphenylsulfonyl)pyridin-3-yl)methyl)-2,6,6-trimethyl-4-oxo-4,5,6,7-tetrahydro-1H-indol-1-yl)acetic acid], for which the IC50 is under 1 nM on CRTH2 [1] and 20 to 100 nM at CRTH2 [2]. With `Cc1c(Cc2ccccc2NS(=O)(=O)c2ccc(O)cc2)c2c(n1CC(=O)O)CC(C)(C)CC2=O` [Compound I-48, 2-(3-(2-(4-Hydroxyphenylsulfonamido)benzyl)-2,6,6-trimethyl-4-oxo-4,5,6,7-tetrahydro-1H-indol-1-yl)acetic acid], the IC50 at CRTH2 [1] was under 1 nM; at CRTH2 [2], 1 to 5 nM. As for `CCOC(=O)Cn1c(C)c(Cc2cccnc2S(=O)(=O)c2ccc(C)cc2)c2c1CC(C)(C)CC2=O` [Compound I-16, Ethyl 2-(2,6,6-trimethyl-4-oxo-3-((2-tosylpyridin-3-yl)methyl)-4,5,6,7-tetrahydro-1H-indol-1-yl)acetate], the IC50 at CRTH2 [1] fell in the range of 20 to 100 nM; on CRTH2 [2], 500 to 3000 nM.

For `Cc1c(Sc2ccccc2N(C)S(=O)(=O)c2ccccc2)c2c(n1CC(=O)O)CC(C)(C)CC2` [Compound I-53, 2-(2,6,6-trimethyl-3-(2-(N-methylphenylsulfonamido)phenylthio)-4,5,6,7-tetrahydro-1H-indol-1-yl)acetic acid], the IC50 at CRTH2 [2] was in the range of 500 to 3000 nM.

Consider `Cc1c(Cc2ccccc2NS(=O)(=O)c2ccc(C(F)(F)F)cc2)c2c(n1CC(=O)O)CC(C)(C)CC2=O` [Compound I-25, 2-(2,6,6-Trimethyl-4-oxo-3-(2-(4-(trifluoromethyl)phenylsulfonamido)benzyl)-4,5,6,7-tetrahydro-1H-indol-1-yl)acetic acid], for which the figures for the IC50 on CRTH2 [1] and at CRTH2 [2] were under 1 nM and 20 to 100 nM, respectively. As for `CCOC(=O)Cn1c(C)c(Cc2cccnc2S(=O)(=O)c2ccc(F)cc2)c2c1CC(C)(C)CC2=O` [Compound I-8, ethyl 2-(3-((2-(4-fluorophenylsulfonyl)pyridin-3-yl)methyl)-2,6,6-trimethyl-4-oxo-4,5,6,7-tetrahydro-1H-indol-1-yl)acetate], the values for the IC50 at CRTH2 [1] and on CRTH2 [2] were 20 to 100 nM and 500 to 3000 nM, respectively.

With `Cc1c(Cc2ccccc2S(=O)(=O)N2CCCC2)c2c(n1CC(=O)O)CC(C)(C)C/C2=N\OCc1ccccc1` [Compound I-31, (E)-2-(4-(Benzyloxyimino)-2,6,6-trimethyl-3-(2-(pyrrolidin-1-ylsulfonyl)benzyl)-4,5,6,7-tetrahydro-1H-indol-1-yl)acetic acid], the values for the IC50 at CRTH2 [1] and at CRTH2 [2] were 1 to 5 nM and 100 to 500 nM, respectively. Consider `Cc1c(Cc2ccccc2NS(=O)(=O)c2ccc(C(C)C)cc2)c2c(n1CC(=O)O)CC(C)(C)CC2=O` [Compound I-27, 2-(3-(2-(4-Isopropylphenylsulfonamido)benzyl)-2,6,6-trimethyl-4-oxo-4,5,6,7-tetrahydro-1H-indol-1-yl)acetic acid], for which the IC50 is under 1 nM at CRTH2 [1] and 20 to 100 nM at CRTH2 [2].
